Results reported in patent EP4623918A1, “AGENT FOR INCREASING BRAIN PLASMALOGEN, AND USE OF ORAL COMPOSITION AND COMPOUND FOR INCREASING BRAIN PLASMALOGEN” (Institute of Rheological Function of Food Co., Ltd., priority 2022, dated 2024).

Assays:
MeCP2-deficient mice = test: Effect of KIT-13 on brain plasmalogen in cerebral cortex tissue lysate (LC-MS/MS), MeCP2-deficient mice; assay type: in vivo; details: male MeCP2-deficient mice, 20 ng/g body weight twice a week by drinking-water administration for three weeks, vs control group given water
Procedure: Four-week-old male MeCP2-deficient mice lacking the MeCP2 gene on the X chromosome were used in the test. The MeCP2-deficient mice were divided into two groups: a control group (MeCP2-KO) and a KIT-13 administration group (KIT-13).
For the KIT-13 administration group, KIT-13 was suspended in water by ultrasonication, and administered twice a week by drinking-water administration such that 20 ng/g body weight of KIT-13 was taken. In contrast, the control group was given only water in a similar manner. KIT-13 was administered for three weeks until the mice were seven weeks old, and the cerebral cortex was collected from the brains of the mice.
(§1) The collected cerebral cortex was homogenized in a lysate (0.25 M sucrose, 10 mM HEPES-KOH (pH 7.4), 1 mM EDTA, and a protease inhibitor cocktail) to prepare a tissue lysate (25 µg protein). To the tissue lysate in a sample tube, 400 µL of MeOH and 100 µL of internal standard IS (C12 phosphatidylethanolamine (PE) and C12 phosphatidylcholine (PC)) dissolved in chloroform/methanol (C:M=1:2) were added and then mixed. The resulting mixture was transferred to a glass tube. […] Thereafter, the sample was dried under nitrogen gas, dissolved in MeOH, and analyzed using liquid chromatography-mass spectrometry (LC-MS/MS). […]

[1] = test system: wild-type mice (male, C57BL/6J mice); test: Effect of KIT-13 on cerebral cortex PlsEtn (LC-MS/MS), wild-type mice; assay type: in vivo; details: wild-type male C57BL/6J mice; KIT-13 given as in Example 2 for four weeks; control group taken as 1; FIG. 2
Procedure: For the KIT-13 administration group, KIT-13 was suspended in water by ultrasonication, and administered twice a week by drinking-water administration such that 20 ng/g body weight of KIT-13 was taken. In contrast, the control group was given only water in a similar manner. […]
as §1, with “tube. Then, 200 µL of MeOH was added again to the sample tube, and after the same operation, the resulting mixture was transferred to the glass tube. To the sample, 1.2 mL of C/M (1:1) was added, mixed, sonicated for 5 minutes, and left to stand for 60 minutes.” for “tube.”
Four-week-old wild-type mice (male, C57BL/6J mice, manufactured by the Jackson Laboratory Japan, Inc.) were divided into two groups: a control group and a KIT-13 administration group. […] PlsEtn in the collected cerebral cortex was quantified as with Example 2.

CCCCCC=CCC=CCC=CCC=CCCCC(=O)OC(COCCCCCCCCCCCCCCCCCC)COP(=O)(O)OCCN [KIT-13, 2-(hydroxy((R)-2-(((5Z,8Z,11Z,14Z)-icosa-5,8,11,14-tetraenoyl)oxy)-3-(octadedecyloxy)propoxy)phosphoryl)oxy)ethane-1-ammonium 2,2,2-trifluoroacetate]
significantly increased: concentration of PlsEtn in the tissue lysate (MeCP2-deficient mice; p < 0.05, FIG. 1A) | concentration of PlsEtn in which the sn-1 position is a saturated aliphatic hydrocarbon group having 18 carbon atoms (PlsEtn-C18:0), in the tissue lysate (MeCP2-deficient mice; p < 0.05, FIG. 1B) | relative PlsEtn amount in the cerebral cortex [1]
